# What was measured:
# Schistosoma mansoni = test: Antischistosomal activity against Schistosoma mansoni infected in golden syrian hamster assessed as worm killing at 143 uM pretreated for 45 mins followed by compound washout measured after 14 days; format: functional
# Schistosoma haematobium = test: Antischistosomal activity against Schistosoma haematobium infected in golden syrian hamster assessed as worm killing at 143 uM pretreated for 45 mins followed by compound washout measured after 14 days; format: functional
# Schistosoma japonicum = test: Antischistosomal activity against Schistosoma japonicum infected in golden syrian hamster assessed as worm killing at 143 uM pretreated for 45 mins followed by compound washout measured after 14 days; format: functional
# [1] = Lipophilicity, log D of the compound; format: physicochemical; conditions: octanol/water
# [2] = Dissociation constant, pKa of the compound; format: physicochemical
Compound,Activity (Schistosoma mansoni),Activity (Schistosoma haematobium) [%],further results
O=[N+]([O-])c1cc(NC2CCCN(Cc3ccccn3)C2)ccc1CO (stereo not given),0%,,
O=[N+]([O-])c1ccc(CN2CCC(Nc3ccc(CO)c([N+](=O)[O-])c3)C2)cc1 (stereo not given),17%,,
O=[N+]([O-])c1cc(NC2CCN(Cc3cccc(C(F)(F)F)c3)C2)ccc1CO (stereo not given),93%,8,
O=[N+]([O-])c1cc(NC2CCN(Cc3ccc(C(F)(F)F)cc3)CC2)ccc1CO,81%,0,
O=[N+]([O-])c1cc(NC2CCCNC2)ccc1CO (stereo not given),50%,,
O=[N+]([O-])c1cc(NC2CCN(Cc3ccccn3)C2)ccc1CO (stereo not given),0%,,
O=[N+]([O-])c1cc(NC2CCCN(Cc3ccccc3)C2)ccc1CO (stereo not given),60%,,
O=[N+]([O-])c1cc(NC2CCN(Cc3ccccc3C(F)(F)F)C2)ccc1CO (stereo not given),27%,,
O=[N+]([O-])c1cc(NC2CCN(Cc3ccc(C(F)(F)F)cc3)C2)ccc1CO (stereo not given),100%,10,
O=[N+]([O-])c1cc(NC2CCCN(Cc3ccc(OC(F)(F)F)cc3)C2)ccc1CO (stereo not given),40%,43,Activity (Schistosoma japonicum): 10%
O=[N+]([O-])c1cc(NC2CCN(Cc3ccccc3)C2)ccc1CO (stereo not given),75%,,
COc1ccccc1CN1CCC(Nc2ccc(CO)c([N+](=O)[O-])c2)C1 (stereo not given),7%,,
O=[N+]([O-])c1cc(NC2CCCN(Cc3ccccc3C(F)(F)F)C2)ccc1CO (stereo not given),75%,40,Activity (Schistosoma japonicum): 83%; logD [1]: 3.27; pKa [2]: 5.9
Cn1cncc1CN1CCCC(Nc2ccc(CO)c([N+](=O)[O-])c2)C1 (stereo not given),20%,,
O=[N+]([O-])c1cc(NC2CCN(Cc3ccccc3C(F)(F)F)CC2)ccc1CO,20%,,
O=[N+]([O-])c1cc(NC2CCN(Cc3ccc(OC(F)(F)F)cc3)CC2)ccc1CO,97%,14,

Compound,Activity (Schistosoma mansoni),Activity (Schistosoma haematobium) [%],further results
CC(C)N1CCC(Nc2ccc(CO)c([N+](=O)[O-])c2)C1 (stereo not given),40%,,
O=[N+]([O-])c1cc(NC2CCCN(CCc3ccccc3)C2)ccc1CO (stereo not given),40%,,
O=[N+]([O-])c1cc(NC2CCN(Cc3c[nH]c4ccccc34)C2)ccc1CO (stereo not given),85%,,
O=[N+]([O-])c1cc(NC2CCN(Cc3ccccc3OC(F)(F)F)C2)ccc1CO (stereo not given),100%,<40,
O=[N+]([O-])c1cc(NC2CCN(Cc3cccc(OC(F)(F)F)c3)C2)ccc1CO (stereo not given),60%,,
CC(C)N1CCCC(Nc2ccc(CO)c([N+](=O)[O-])c2)C1 (stereo not given),10%,,
O=[N+]([O-])c1cc(NC2CCCN(Cc3ccccc3OC(F)(F)F)C2)ccc1CO (stereo not given),84%,<40,
Cn1cncc1CN1CCC(Nc2ccc(CO)c([N+](=O)[O-])c2)C1 (stereo not given),0%,,
O=[N+]([O-])c1cc(NC2CCN(Cc3ccccc3F)C2)ccc1CO (stereo not given),30%,,
O=[N+]([O-])c1cc(NC2CCN(Cc3ccc(OC(F)(F)F)cc3)C2)ccc1CO (stereo not given),87%,40,Activity (Schistosoma japonicum): 0%
O=[N+]([O-])c1cc(NC2CCN(Cc3ccc(Cl)cc3Cl)C2)ccc1CO (stereo not given),17%,,
O=[N+]([O-])c1cc(NC2CCN(CCc3ccccc3)C2)ccc1CO (stereo not given),7%,,
O=[N+]([O-])c1cc(NC2CCCN(Cc3cccc(C(F)(F)F)c3)C2)ccc1CO (stereo not given),100%,2,Activity (Schistosoma japonicum): 2%
O=[N+]([O-])c1cc(NC2CCNC2)ccc1CO (stereo not given),10%,,
O=[N+]([O-])c1cc(NC2CCCN(Cc3c[nH]c4ccccc34)C2)ccc1CO (stereo not given),26%,,
CC(C)NCC1CCc2cc(CO)c([N+](=O)[O-])cc2N1 (stereo not given) [OXAMNIQUINE],50 - 85%,0,Activity (Schistosoma japonicum): 0%

# Reference: ChEMBL document CHEMBL4265999, “Design, Synthesis, and Characterization of Novel Small Molecules as Broad Range Antischistosomal Agents” (ACS Med Chem Lett, 2018)
